Laboratory results reported in article PMC6943714, “Rigorous Computational and Experimental Investigations on MDM2/MDMX-Targeted Linear and Macrocyclic Peptides” (Molecules, 2019).
Where a SMILES comes first, the peptide text is derived from it. Bridges are numbered along the chain shown (N, C = ends). [ ]: non-standard residue; d: D form. R8 = C=CCCCCCC[C@@](C)(N)C(=O)O; Cba = N[C@@H](CC1CCC1)C(=O)O; S5 = C=CCCC[C@](C)(N)C(=O)O

Key:
MDMX = biological target: T1, MDMX (Homo sapiens, UniProt O15151); experiment: Experimental MDMX binding (Table 4)
T1 sequence (O15151 1-490): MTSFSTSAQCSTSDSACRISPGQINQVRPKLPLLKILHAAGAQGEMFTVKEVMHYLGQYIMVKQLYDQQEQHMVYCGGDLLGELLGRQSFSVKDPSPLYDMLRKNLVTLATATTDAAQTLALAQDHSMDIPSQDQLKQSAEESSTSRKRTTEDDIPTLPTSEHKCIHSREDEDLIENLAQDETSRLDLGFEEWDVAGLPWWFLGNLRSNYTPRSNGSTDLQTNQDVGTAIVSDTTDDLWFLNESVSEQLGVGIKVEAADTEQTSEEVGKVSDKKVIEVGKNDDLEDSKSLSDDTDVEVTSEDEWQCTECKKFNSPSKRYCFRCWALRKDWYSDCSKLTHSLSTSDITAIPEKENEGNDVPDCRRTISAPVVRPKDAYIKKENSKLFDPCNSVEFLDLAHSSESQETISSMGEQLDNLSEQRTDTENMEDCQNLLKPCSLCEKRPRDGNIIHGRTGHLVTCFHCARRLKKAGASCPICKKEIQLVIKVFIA
Excerpt: Table 4 Prospective Testing Data. | column: Experimental MDMX / Kd (nM); Experimental MDMX / ΔΔG (kcal)

MDM2 (1-125) = biological target: T2, MDM2 (1-125) (Homo sapiens, UniProt Q00987); experiment: Mdm2 competitive fluorescence anisotropy assay; assay type: binding; details: read-out: Experimental MDM2 Kd
T2 construct: Purified MDM2 (1-125) protein was titrated against
Procedure: Mdm2 Competitive Fluorescence Anisotropy Assay and Kd Determination Purified MDM2 (1-125) protein was titrated against 50 nM carboxyfluorescein (FAM)-labeled 12/1 peptide (FAM-[…]-NH2). […] (4) r=r0+(rb−r0)((Kd+[L]t+[P]t)−(Kd+[L]t+[P]t)^2−4[L]t[P]t/2[L]t)
[P] is the protein concentration (MDM2), [L] is the labeled peptide concentration, r is the anisotropy measured, ro is the anisotropy of the free peptide, rb is the anisotropy of the MDM2–FAM-labeled peptide complex, Kd is the dissociation constant, [L]t is the total FAM-labeled peptide concentration, and [P]t is the total MDM2 concentration.
Apparent Kd values were determined for a variety of molecules via competitive fluorescence anisotropy experiments. Titrations were carried out with the concentration of MDM2 held constant at 250 nM and the labeled peptide at 50 nM. The competing molecules were then titrated against the complex of the FAM-labeled peptide and protein. Apparent Kd values were determined by fitting the experimental data to the equations shown below: [58, 59]. […]
[L]st and [L]t denote labeled ligand and total unlabeled ligand input concentrations, respectively. […] Kd1 is the apparent Kd for the labeled peptide used in the respective experiment, which has been experimentally determined as described in the previous paragraph. […] Readings were carried out with an Envision Multilabel Reader (PerkinElmer). […]

T2 sequence (Q00987 1-125): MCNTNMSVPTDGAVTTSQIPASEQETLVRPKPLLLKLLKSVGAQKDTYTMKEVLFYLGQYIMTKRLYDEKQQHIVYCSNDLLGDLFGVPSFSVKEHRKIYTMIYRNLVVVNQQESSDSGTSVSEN

Kd (MDMX) | Kd (MDM2 (1-125)) | Structure (SMILES)
12.5 nM | – | CC(=O)N[C@@H](CC(C)C)C(=O)N[C@H](C(=O)N[C@@H](Cc1ccccc1)C(=O)N[C@]1(C)CCCCCCC=CCCC[C@@](C)(C(=O)N[C@@H](CO)C(=O)N[C@@H](C)C(=O)N[C@@H](C)C(N)=O)NC(=O)[C@H](CC2CCC2)NC(=O)[C@H](CC(C)C)NC(=O)[C@H](CCC(N)=O)NC(=O)[C@H](Cc2c[nH]c3ccccc23)NC(=O)[C@H](Cc2ccc(O)cc2)NC(=O)[C@H](CCC(=O)O)NC1=O)[C@@H](C)O [WT]
130 nM | 51.5 nM | CC(=O)N[C@@H](CC(C)C)C(=O)N[C@H](C(=O)N[C@@H](Cc1ccccc1)C(=O)N[C@]1(C)CCCCCCC=CCCC[C@@](C)(C(=O)N[C@@H](CO)C(=O)N[C@@H](C)C(=O)N[C@@H](C)C(N)=O)NC(=O)[C@H](CC2CCC2)NC(=O)[C@H](CC(C)C)NC(=O)[C@H](CCC(N)=O)NC(=O)[C@H](Cc2c[nH]c3ccccc23)NC(=O)[C@H](C)NC(=O)[C@H](CCC(=O)O)NC1=O)[C@@H](C)O [Y6A] (Ac-LTF[R8]EAWQL[Cba][S5]SAA-NH2; staple 4-11)
921 nM | 365 nM | CC(=O)N[C@@H](CC(C)C)C(=O)N[C@H](C(=O)N[C@@H](Cc1ccccc1)C(=O)N[C@]1(C)CCCCCCC=CCCC[C@@](C)(C(=O)N[C@@H](CO)C(=O)N[C@@H](C)C(=O)N[C@@H](C)C(N)=O)NC(=O)[C@H](CC2CCC2)NC(=O)[C@H](CC(C)C)NC(=O)[C@H](CCC(N)=O)NC(=O)[C@H](Cc2c[nH]c3ccccc23)NC(=O)[C@@H](Cc2ccc(O)cc2)NC(=O)[C@H](CCC(=O)O)NC1=O)[C@@H](C)O [Y6dY]
